Experiments:
[1] = molecular target: LIM domain kinase 2 (Homo sapiens) (UniProt P53671); experiment: Inhibition of LIMK2 at 10 uM; settings: values are per cent of control
[2] = molecular target: Serine/threonine-protein kinase 38-like (Homo sapiens) (UniProt Q9Y2H1); experiment: Inhibition of NDR2 at 10 uM
[3] = test system: Hepatocyte growth factor receptor (Homo sapiens), P08581 [M1250T]; experiment: Inhibition of MET M1250T mutant at 10 uM
[4] = test system: Proto-oncogene tyrosine-protein kinase receptor Ret (Homo sapiens), P07949 [M918T]; experiment: Inhibition of RET M918T mutant at 10 uM; values are per cent of control
[5] = molecular target: Protein kinase C epsilon type (Homo sapiens) (UniProt Q02156); experiment: Inhibition of PRKCE at 10 uM
[6] = molecular target: cGMP-dependent protein kinase 2 (Homo sapiens) (UniProt Q13237); experiment: Inhibition of PRKG2 at 10 uM
[7] = molecular target: Serine/threonine-protein kinase PAK 4 (Homo sapiens) (UniProt O96013); experiment: Inhibition of PAK4 at 10 uM
[8] = molecular target: Serine/threonine-protein kinase PLK4 (Homo sapiens) (UniProt O00444); experiment: Inhibition of PLK4 at 10 uM
[9] = molecular target: Serine/threonine-protein kinase NIM1 (Homo sapiens) (UniProt Q8IY84); experiment: Inhibition of NIM1 at 10 uM
[10] = molecular target: Dual serine/threonine and tyrosine protein kinase (Homo sapiens) (UniProt Q6XUX3); experiment: Inhibition of RIPK5 at 10 uM
[11] = molecular target: Maternal embryonic leucine zipper kinase (Homo sapiens) (UniProt Q14680); experiment: Inhibition of MELK at 10 uM; settings: values are per cent of control
[12] = molecular target: Phosphatidylinositol 4,5-bisphosphate 3-kinase catalytic subunit alpha isoform (Homo sapiens) (UniProt P42336); experiment: Inhibition of PIK3CA at 10 uM; values are per cent of control
[13] = molecular target: Rhodopsin kinase GRK7 (Homo sapiens) (UniProt Q8WTQ7); experiment: Inhibition of GRK7 at 10 uM; settings: values are per cent of control
[14] = molecular target: Protein kinase C theta type (Homo sapiens) (UniProt Q04759); experiment: Inhibition of PRKCQ at 10 uM
[15] = molecular target: Activin receptor type-1B (Homo sapiens) (UniProt P36896); experiment: Inhibition of ACVR1B at 10 uM; settings: values are per cent of control
[16] = test system: Phosphatidylinositol 4,5-bisphosphate 3-kinase catalytic subunit alpha isoform (Homo sapiens), P42336 [E545K]; experiment: Inhibition of PIK3CA E545K mutant at 10 uM
[17] = molecular target: Serine/threonine-protein kinase PAK 3 (Homo sapiens) (UniProt O75914); experiment: Inhibition of PAK3 at 10 uM; values are per cent of control
[18] = molecular target: Ribosomal protein S6 kinase alpha-5 (Homo sapiens) (UniProt O75582); experiment: Inhibition of RPS6KA5 C-terminal domain2 at 10 uM
[19] = molecular target: Homeodomain-interacting protein kinase 3 (Homo sapiens) (UniProt Q9H422); experiment: Inhibition of HIPK3 at 10 uM; settings: values are per cent of control
[20] = test system: Tyrosine-protein kinase ABL1 (Homo sapiens), P00519 [H396P]; experiment: Inhibition of non phosphorylated ABL1 H396P mutant at 10 uM; settings: values are per cent of control
[21] = molecular target: Cyclin-dependent kinase 18 (Homo sapiens) (UniProt Q07002); experiment: Inhibition of PCTK3 at 10 uM; settings: values are per cent of control
[22] = molecular target: Serine/threonine-protein kinase ULK2 (Homo sapiens) (UniProt Q8IYT8); experiment: Inhibition of ULK2 at 10 uM; settings: values are per cent of control
[23] = molecular target: Ephrin type-A receptor 1 (Homo sapiens) (UniProt P21709); experiment: Inhibition of EPHA1 at 10 uM; settings: values are per cent of control
[24] = molecular target: Mitogen-activated protein kinase kinase kinase 2 (Homo sapiens) (UniProt Q9Y2U5); experiment: Inhibition of MAP3K2 at 10 uM; settings: values are per cent of control
[25] = molecular target: Serine/threonine-protein kinase BRSK2 (Homo sapiens) (UniProt Q8IWQ3); experiment: Inhibition of BRSK2 at 10 uM; values are per cent of control
[26] = molecular target: Dual specificity mitogen-activated protein kinase kinase 7 (Homo sapiens) (UniProt O14733); experiment: Inhibition of MKK7 at 10 uM
[27] = test system: Tyrosine-protein kinase ABL1 (Homo sapiens), P00519 [Q252H]; experiment: Inhibition of non phosphorylated ABL1 Q252H mutant at 10 uM; settings: values are per cent of control
[28] = molecular target: Ribosomal protein S6 kinase alpha-1 (Homo sapiens) (UniProt Q15418); experiment: Inhibition of RSK1 N-terminal domain1 at 10 uM
[29] = molecular target: Mitogen-activated protein kinase kinase kinase kinase 5 (Homo sapiens) (UniProt Q9Y4K4); experiment: Inhibition of MAP4K5 at 10 uM; settings: values are per cent of control
[30] = test system: Tyrosine-protein kinase ABL1 (Homo sapiens), P00519 [F317I]; experiment: Inhibition of non phosphorylated ABL1 F317I mutant at 10 uM; settings: values are per cent of control
[31] = molecular target: Myosin-IIIb (Homo sapiens) (UniProt Q8WXR4); experiment: Inhibition of MYO3B at 10 uM
[32] = molecular target: Phosphatidylinositol 4,5-bisphosphate 3-kinase catalytic subunit gamma isoform (Homo sapiens) (UniProt P48736); experiment: Inhibition of PIK3CG at 10 uM
[33] = molecular target: Tyrosine-protein kinase ABL1 (Homo sapiens) (UniProt P00519); experiment: Inhibition of non phosphorylated ABL1 at 10 uM; settings: values are per cent of control
[34] = molecular target: Serine/threonine-protein kinase PknB (Mycobacterium tuberculosis) (UniProt P9WI81); experiment: Inhibition of Mycobacterium tuberculosis PKNB at 10 uM
[35] = molecular target: Tyrosine-protein kinase Fgr (Homo sapiens) (UniProt P09769); experiment: Inhibition of FGR at 10 uM; settings: values are per cent of control
[36] = molecular target: Myosin light chain kinase 2, skeletal/cardiac muscle (Homo sapiens) (UniProt Q9H1R3); experiment: Inhibition of MYLK2 at 10 uM
[37] = molecular target: Dual specificity protein kinase TTK (Homo sapiens) (UniProt P33981); experiment: Inhibition of TTK at 10 uM; settings: values are per cent of control
[38] = molecular target: Ephrin type-A receptor 2 (Homo sapiens) (UniProt P29317); experiment: Inhibition of EPHA2 at 10 uM; settings: values are per cent of control
[39] = molecular target: Protein-tyrosine kinase 6 (Homo sapiens) (UniProt Q13882); experiment: Inhibition of BRK at 10 uM; settings: values are per cent of control
[40] = molecular target: Ankyrin repeat and protein kinase domain-containing protein 1 (Homo sapiens) (UniProt Q8NFD2); experiment: Inhibition of ANKK1 at 10 uM; settings: values are per cent of control
[41] = molecular target: Dual specificity testis-specific protein kinase 1 (Homo sapiens) (UniProt Q15569); experiment: Inhibition of TESK1 at 10 uM
[42] = test system: eIF-2-alpha kinase GCN2 (Homo sapiens), Q9P2K8 [S808G]; experiment: Inhibition of GCN2 Domain2 S808G mutant at 10 uM; settings: values are per cent of control
[43] = molecular target: Serine/threonine-protein kinase D1 (Homo sapiens) (UniProt Q15139); experiment: Inhibition of PRKD1 at 10 uM
Chain of Serine/threonine-protein kinase D1 (Homo sapiens) (Q15139 whole entry): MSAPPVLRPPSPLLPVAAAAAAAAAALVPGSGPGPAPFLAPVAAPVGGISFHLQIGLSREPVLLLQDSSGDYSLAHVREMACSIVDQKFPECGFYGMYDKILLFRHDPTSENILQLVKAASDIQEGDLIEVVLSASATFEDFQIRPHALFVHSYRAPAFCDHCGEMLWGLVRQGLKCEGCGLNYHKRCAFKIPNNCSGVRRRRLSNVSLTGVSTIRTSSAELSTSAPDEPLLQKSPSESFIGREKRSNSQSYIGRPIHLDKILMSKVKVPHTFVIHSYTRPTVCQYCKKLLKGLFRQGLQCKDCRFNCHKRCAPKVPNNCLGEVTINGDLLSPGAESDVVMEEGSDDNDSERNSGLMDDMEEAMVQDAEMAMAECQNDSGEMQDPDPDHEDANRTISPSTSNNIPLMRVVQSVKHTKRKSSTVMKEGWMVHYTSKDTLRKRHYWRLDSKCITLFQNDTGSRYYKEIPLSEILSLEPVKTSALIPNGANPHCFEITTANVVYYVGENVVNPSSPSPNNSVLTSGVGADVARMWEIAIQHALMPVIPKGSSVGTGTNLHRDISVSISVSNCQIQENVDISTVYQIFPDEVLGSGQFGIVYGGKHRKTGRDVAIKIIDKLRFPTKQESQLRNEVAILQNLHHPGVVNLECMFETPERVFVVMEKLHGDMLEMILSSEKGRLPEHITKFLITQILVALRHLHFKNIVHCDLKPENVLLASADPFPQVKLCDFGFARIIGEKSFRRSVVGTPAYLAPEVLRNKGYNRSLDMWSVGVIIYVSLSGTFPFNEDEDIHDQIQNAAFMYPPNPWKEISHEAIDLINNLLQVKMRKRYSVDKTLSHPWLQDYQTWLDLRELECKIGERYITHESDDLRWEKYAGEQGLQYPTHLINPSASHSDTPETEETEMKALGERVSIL

Chain of Serine/threonine-protein kinase ULK2 (Homo sapiens) (Q8IYT8 whole entry): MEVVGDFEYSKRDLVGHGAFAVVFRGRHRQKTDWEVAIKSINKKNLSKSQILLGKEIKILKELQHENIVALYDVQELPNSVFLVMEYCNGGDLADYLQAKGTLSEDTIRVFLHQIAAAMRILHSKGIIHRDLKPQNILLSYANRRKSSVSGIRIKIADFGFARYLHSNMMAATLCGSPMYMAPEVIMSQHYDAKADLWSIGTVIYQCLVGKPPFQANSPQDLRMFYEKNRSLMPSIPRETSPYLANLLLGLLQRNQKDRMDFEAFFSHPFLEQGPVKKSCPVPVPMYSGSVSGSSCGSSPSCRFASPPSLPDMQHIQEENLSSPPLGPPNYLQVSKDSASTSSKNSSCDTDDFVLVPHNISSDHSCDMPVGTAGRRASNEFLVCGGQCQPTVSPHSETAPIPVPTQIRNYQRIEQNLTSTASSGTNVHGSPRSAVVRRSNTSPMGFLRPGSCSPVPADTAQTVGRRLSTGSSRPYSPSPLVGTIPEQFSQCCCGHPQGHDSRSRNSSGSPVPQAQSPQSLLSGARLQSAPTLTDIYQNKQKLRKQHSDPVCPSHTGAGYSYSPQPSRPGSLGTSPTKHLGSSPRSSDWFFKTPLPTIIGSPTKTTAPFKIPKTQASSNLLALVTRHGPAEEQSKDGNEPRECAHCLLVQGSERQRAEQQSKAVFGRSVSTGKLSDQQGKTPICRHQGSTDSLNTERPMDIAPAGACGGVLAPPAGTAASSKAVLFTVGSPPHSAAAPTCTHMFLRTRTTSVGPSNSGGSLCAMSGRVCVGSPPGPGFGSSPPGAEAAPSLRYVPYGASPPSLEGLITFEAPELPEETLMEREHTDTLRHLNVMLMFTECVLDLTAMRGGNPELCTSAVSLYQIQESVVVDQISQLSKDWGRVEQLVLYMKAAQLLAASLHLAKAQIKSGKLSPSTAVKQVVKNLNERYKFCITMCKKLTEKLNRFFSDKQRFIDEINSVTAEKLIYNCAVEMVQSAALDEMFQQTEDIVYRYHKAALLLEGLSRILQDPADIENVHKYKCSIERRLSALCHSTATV
Chain of Dual specificity mitogen-activated protein kinase kinase 7 (Homo sapiens) (O14733 whole entry): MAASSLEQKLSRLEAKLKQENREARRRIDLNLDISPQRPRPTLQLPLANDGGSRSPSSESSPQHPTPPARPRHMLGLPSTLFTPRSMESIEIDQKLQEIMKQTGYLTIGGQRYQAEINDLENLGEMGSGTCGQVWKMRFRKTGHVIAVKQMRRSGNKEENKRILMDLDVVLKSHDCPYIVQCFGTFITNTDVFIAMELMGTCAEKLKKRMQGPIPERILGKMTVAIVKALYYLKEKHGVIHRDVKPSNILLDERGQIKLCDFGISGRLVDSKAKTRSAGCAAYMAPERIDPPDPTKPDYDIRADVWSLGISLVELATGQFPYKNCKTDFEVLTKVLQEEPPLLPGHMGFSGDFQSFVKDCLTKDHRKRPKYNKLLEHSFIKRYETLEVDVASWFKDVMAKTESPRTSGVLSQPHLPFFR
Chain of Phosphatidylinositol 4,5-bisphosphate 3-kinase catalytic subunit alpha isoform (Homo sapiens) (P42336 whole entry, canonical isoform): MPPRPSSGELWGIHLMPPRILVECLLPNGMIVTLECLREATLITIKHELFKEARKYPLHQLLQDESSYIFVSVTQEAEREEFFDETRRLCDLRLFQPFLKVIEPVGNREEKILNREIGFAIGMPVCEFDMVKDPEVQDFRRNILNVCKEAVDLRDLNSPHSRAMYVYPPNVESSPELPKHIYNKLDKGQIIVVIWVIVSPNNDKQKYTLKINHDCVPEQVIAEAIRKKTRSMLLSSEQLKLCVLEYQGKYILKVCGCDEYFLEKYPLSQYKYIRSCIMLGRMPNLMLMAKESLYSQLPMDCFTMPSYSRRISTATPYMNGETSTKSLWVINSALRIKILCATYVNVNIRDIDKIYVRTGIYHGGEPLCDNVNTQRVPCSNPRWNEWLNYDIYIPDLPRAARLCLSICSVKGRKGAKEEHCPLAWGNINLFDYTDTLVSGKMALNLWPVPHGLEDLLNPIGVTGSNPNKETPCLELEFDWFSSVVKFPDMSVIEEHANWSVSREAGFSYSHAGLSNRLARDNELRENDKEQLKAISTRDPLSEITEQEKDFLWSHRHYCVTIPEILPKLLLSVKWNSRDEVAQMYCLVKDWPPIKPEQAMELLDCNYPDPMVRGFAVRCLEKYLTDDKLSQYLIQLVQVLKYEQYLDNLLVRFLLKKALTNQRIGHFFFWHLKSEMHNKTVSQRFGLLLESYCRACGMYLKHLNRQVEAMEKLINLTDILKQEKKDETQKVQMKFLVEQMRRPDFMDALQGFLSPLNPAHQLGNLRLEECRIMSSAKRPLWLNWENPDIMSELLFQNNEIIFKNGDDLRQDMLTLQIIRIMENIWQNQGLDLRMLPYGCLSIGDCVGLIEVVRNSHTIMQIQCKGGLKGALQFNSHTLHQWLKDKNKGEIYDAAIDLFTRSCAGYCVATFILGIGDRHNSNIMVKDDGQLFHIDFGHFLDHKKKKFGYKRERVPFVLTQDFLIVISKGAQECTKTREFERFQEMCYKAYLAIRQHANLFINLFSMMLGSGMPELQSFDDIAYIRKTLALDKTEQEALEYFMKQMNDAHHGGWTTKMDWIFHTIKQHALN
Chain of Rhodopsin kinase GRK7 (Homo sapiens) (Q8WTQ7 whole entry): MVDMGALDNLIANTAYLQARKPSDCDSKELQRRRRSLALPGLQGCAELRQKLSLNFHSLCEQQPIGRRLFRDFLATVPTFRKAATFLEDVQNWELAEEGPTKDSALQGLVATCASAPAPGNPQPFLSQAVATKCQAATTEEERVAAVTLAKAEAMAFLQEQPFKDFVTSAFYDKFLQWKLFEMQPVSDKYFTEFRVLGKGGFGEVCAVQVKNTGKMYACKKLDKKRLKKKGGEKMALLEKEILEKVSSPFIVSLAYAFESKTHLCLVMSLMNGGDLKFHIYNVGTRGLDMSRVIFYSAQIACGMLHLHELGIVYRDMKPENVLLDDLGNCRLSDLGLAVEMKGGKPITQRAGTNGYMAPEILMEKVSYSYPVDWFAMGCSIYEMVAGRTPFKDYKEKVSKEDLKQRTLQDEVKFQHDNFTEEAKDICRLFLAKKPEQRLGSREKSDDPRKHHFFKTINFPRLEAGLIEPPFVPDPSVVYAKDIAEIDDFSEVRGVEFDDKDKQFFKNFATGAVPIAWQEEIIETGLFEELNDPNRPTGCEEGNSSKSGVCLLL
Chain of Ephrin type-A receptor 2 (Homo sapiens) (P29317 whole entry): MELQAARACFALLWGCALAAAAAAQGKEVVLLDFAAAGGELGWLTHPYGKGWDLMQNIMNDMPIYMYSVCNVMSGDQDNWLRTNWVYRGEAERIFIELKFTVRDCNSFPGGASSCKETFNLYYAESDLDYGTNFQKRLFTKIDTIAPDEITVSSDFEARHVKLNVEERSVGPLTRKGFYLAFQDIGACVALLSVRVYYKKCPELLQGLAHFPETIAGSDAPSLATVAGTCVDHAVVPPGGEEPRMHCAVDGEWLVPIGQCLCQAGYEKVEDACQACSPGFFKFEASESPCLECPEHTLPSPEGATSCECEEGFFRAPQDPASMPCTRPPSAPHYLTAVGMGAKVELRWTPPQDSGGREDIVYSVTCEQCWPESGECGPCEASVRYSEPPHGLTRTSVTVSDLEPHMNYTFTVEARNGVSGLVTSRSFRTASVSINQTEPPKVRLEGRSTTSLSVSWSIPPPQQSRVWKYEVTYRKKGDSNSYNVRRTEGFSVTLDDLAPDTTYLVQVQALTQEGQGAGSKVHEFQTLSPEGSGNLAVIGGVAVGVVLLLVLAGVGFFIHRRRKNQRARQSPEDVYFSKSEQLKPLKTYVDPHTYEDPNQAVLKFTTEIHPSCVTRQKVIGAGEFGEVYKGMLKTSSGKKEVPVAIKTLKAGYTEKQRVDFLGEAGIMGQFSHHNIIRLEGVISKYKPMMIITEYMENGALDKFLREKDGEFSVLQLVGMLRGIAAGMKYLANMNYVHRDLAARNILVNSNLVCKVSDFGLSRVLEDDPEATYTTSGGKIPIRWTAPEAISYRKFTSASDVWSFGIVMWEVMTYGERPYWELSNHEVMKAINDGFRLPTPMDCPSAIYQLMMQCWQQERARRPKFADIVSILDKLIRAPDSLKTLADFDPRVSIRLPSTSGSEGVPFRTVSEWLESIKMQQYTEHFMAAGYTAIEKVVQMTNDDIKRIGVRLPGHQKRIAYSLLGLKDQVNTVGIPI
Chain of Phosphatidylinositol 4,5-bisphosphate 3-kinase catalytic subunit alpha isoform (Homo sapiens), P42336 [E545K] (P42336 whole entry E545K, canonical isoform): as the sequence (P42336 whole entry, canonical isoform) above, with E545K counted along it

CCN1CCN(Cc2ccc(NC(=O)c3ccc(C)c(C#Cc4cnc5[nH]ccc5c4)c3)cc2C(F)(F)F)CC1
residual binding, % of control [1]: 0.35% | inhibition [2]: 11% | inhibition [3]: 59% | level, % of control [4]: 0% | inhibition [5]: 78% | inhibition [6]: 77% | inhibition [7]: 87% | inhibition [8]: 97% | inhibition [9]: 98% | inhibition [10]: 8.2% | residual binding, % of control [11]: 6.1% | level, % of control [12]: 93% | residual binding, % of control [13]: 100% | inhibition [14]: 36% | residual binding, % of control [15]: 63% | inhibition [16]: 98% | % of control [17]: 1.1% | inhibition [18]: 97% | residual binding, % of control [19]: 25% | residual binding, % of control [20]: 0.05% | residual binding, % of control [21]: 12% | residual binding, % of control [22]: 61% | residual binding, % of control [23]: 0.6% | residual binding, % of control [24]: 0.1% | level, % of control [25]: 90% | inhibition [26]: 5.4% | residual binding, % of control [27]: 1.6% | inhibition [28]: 34% | residual binding, % of control [29]: 1.6% | residual binding, % of control [30]: 8.8% | inhibition [31]: 0% | inhibition [32]: 100% | residual binding, % of control [33]: 0.1% | inhibition [34]: 98% | residual binding, % of control [35]: 0.15% | inhibition [36]: 0.15% | residual binding, % of control [37]: 2% | residual binding, % of control [38]: 0.35% | residual binding, % of control [39]: 2.5% | residual binding, % of control [40]: 7.1% | inhibition [41]: 2.4% | residual binding, % of control [42]: 0.25% | inhibition [43]: 63%

CCN1CCN(Cc2ccc(NC(=O)c3ccc(C)c(C#Cc4cccnc4)c3)cc2C(F)(F)F)CC1
residual binding, % of control [1]: 11% | inhibition [2]: 8.7% | inhibition [3]: 73% | level, % of control [4]: 0% | inhibition [5]: 54% | inhibition [6]: 97% | inhibition [7]: 100% | inhibition [8]: 88% | inhibition [9]: 97% | inhibition [10]: 27% | residual binding, % of control [11]: 8.1% | level, % of control [12]: 100% | residual binding, % of control [13]: 100% | inhibition [14]: 55% | residual binding, % of control [15]: 85% | inhibition [16]: 85% | % of control [17]: 3.3% | inhibition [18]: 100% | residual binding, % of control [19]: 18% | residual binding, % of control [20]: 0% | residual binding, % of control [21]: 6.2% | residual binding, % of control [22]: 50% | residual binding, % of control [23]: 1.2% | residual binding, % of control [24]: 0.15% | level, % of control [25]: 81% | inhibition [26]: 11% | residual binding, % of control [27]: 6.4% | inhibition [28]: 53% | residual binding, % of control [29]: 3% | residual binding, % of control [30]: 8.8% | inhibition [31]: 0% | inhibition [32]: 100% | residual binding, % of control [33]: 0% | inhibition [34]: 87% | residual binding, % of control [35]: 0% | inhibition [36]: 3.4% | residual binding, % of control [37]: 16% | residual binding, % of control [38]: 0.4% | residual binding, % of control [39]: 2.8% | residual binding, % of control [40]: 8.2% | inhibition [41]: 60% | residual binding, % of control [42]: 1.3% | inhibition [43]: 51%
